Columns and labels:
FRB*Pax6 [1] = molecular target: T1, FRB*Pax6 (UniProt P26883+P42345, K2095P/T2098L/W2101F); test: Whole embryo culture, inducible stabilization of FRB*Pax6; set-up: species or system mouse
T1 construct: The minimal FRB domain comprises amino acids 2025-2114 of human mTor; from tissue; host or cells: e13.5 cortical neural cultures (A14) and cultured whole embryos (A15) from Pax6^FRB* knock-in mice; fusion expressed from the targeted endogenous locus
Description: Uterine horns were removed from sacrificed mothers to a petri dish containing Hank's Balanced Salt Solution (HBSS), fat was removed and the uterus cut up to isolate embryos. Individual deciduum were carefully removed from the uterus by carefully pulling apart the muscular layers in a fresh petri dish containing HBSS (sometimes supplemented with 2 mg/mL glucose) under a dissecting microscope. Embryos were removed by cutting along the lateral axis of the deciduum with fine forceps taking care not to puncture the embryonic membranes and teasing off the decidual layers overlying the embryo. Embryos were then separated from the remaining decidua at the ectoplacental cone or primitive placenta (depending on the age of the embryo).
Reichert's membrane was grasped without the underlying visceral yolk sac, carefully torn away from the embryo and trimmed back to the placenta without ripping the yolk sac. […] The bottle rotated slowly in a roller bottle chamber at 37° C. Drugs were added directly to the culture media at the commencement of the culture.
Embryos were fixed overnight in 4% paraformaldehyde/PBS then dehydrated through a staged ethanol series. Endogenous peroxidases were inactivated with 5% H2O2 for 4 hours in ethanol and the embryos were rehydrated. […] Embryos were washed in block 6 hours with 1 hour changes and incubated overnight at 4° C. with […] anti-mouse secondary. Embryos were washed with PBS+0.1% Triton X-100 4 times for 1 hour and developed with the DAB peroxidase kit from Vector laboratories.
Embryos were protected with a staged series to 30% sucrose in PBS after fixation in 4% PFA (60 minutes to overnight at 4° C.). Protected embryos were embedded in OCT (VWR) frozen and sectioned on a Leica cryostat to 10 μm. Thin sections were stained according to standard protocols (obtained upon request). Secondary antibodies were purchased from Molecular Probes (Eugene, Oreg.) and primary antibodies to neurofilament, Lim3, Nkx2.2, Pax6, En1, Isl1 were obtained from Dev. Studies. Additional antibodies were from Covance, Zymed or a generous gift of Tadashi Nomura and Noriko Osumi (Sendai, Japan). Immunofluorescence was visualized by confocal microscopy.

FRB*Pax6 [2] = molecular target: T1, FRB*Pax6; test: Stabilization of FRB*Pax6 in cortical neural cultures (Western blot); type: cell-based, mouse
Source text: e13.5 embryos were harvested from a Pax6^FRB*/+ intercross and cortical hemispheres isolated from individuals identified by eye and craniofacial morphology and later confirmed by genotype specific PCR. Pia were removed and neocortex dissected from […] in Hank's balanced salt solution (HBSS). Tissue was minced roughly and placed in centrifuge tubes containing HBSS+20% foetal calf serum. Tissue pieces were allowed to settle and the media was replaced first with HBSS+serum then HBSS alone. The tissue was incubated with 0.1% trypsin+2 mM EDTA 10 minutes at 37° C. then the reaction stopped with HBSS+serum. Cells were triturated to a suspension and plated on 24 well plates coated with matrigel in DMEM (high glucose) supplemented with FCS (5%), N2 (GIBCO) and antibiotics.
Extracts were prepared in RIPA buffer, protein quantified by Bradford Assay (Biorad) and 10 μg of total protein resolved by SDS-PAGE, transferred to PVDF (Millipore) filters and Pax6 or HSP90 identified with specific antibodies (1:1000, Covance and 1:2500 Transduction Laboratories, respectively) incubated 1 hour in TBS+10% nonfat milk. Secondary conjugated to horse radish peroxidase were purchased from Jackson immunochemicals and blots were developed by chemiluminescence (Amersham).

GSK-3βFRB* = GSK-3βFRB* (UniProt P26883+P42345, K2095P/T2098L/W2101F); test: Inducible stabilization of GSK-3βFRB* in knock-in MEFs (Western blot); type: cell-based, mouse; set-up: The minimal FRB domain comprises amino acids 2025-2114 of human mTor; endogenous in cells; host or cells: MEFs from GSK-3β^FRB* knock-in mice (fusion expressed from the targeted endogenous locus)
Description: MEFs cell lines were prepared from E14.5-E16.5 embryos of indicated genotypes by eviscerating the embryos in HBSS, treating the remaining tissue with 0.2% collagenase and trypsin, and plating the cells in DMEM containing 10% FCS, antibiotics, and 0.1 mM β-mercaptoethanol. Once established, the MEFs were cultured using standard techniques and treated with various small molecules as indicated.
Western Blot analysis was carried out using cell lysates prepared in RIPA buffer (10 mM Tris pH 7.2, 150 mM NaCl, 0.1% SDS, 1% Triton X-100, 1% deoxycholate, 5 mM EDTA, protease inhibitor cocktail (Invitrogen Life Technologies)) and then separated using standard SDS/PAGE before being transferred to PVDF (Millipore) using standard Western blotting procedures. The anti-GSK-3β antibody, used at 1:2500, the anti-HSP-90 antibody, 1:2500, and the anti-FKBP12 antibody, 1:2500, were purchased from BD Transduction Labs. The anti-β-catenin antibody, 1:2000, and anti-HSP-70 antibody, 1:1000 were purchased from Santa Cruz Biotechnology. […] In all cases, Western blots were incubated overnight with the appropriate primary antibodies in TBST (10 mM Tris 8.0, 150 mM NaCl, 0.1% Tween-20) containing 10% dry milk, and then washed 3 times with TBST. The blots were subsequently incubated for 30 minutes with HRP-conjugated secondary antibodies from Jackson Immunoresearch, washed 3 more times with TBST, and then developed using standard ECL reagents (Amersham Biosciences) and Kodak XAR film.

Chain of GSK-3βFRB* (P42345 2025-2114 K2095P/T2098L/W2101F): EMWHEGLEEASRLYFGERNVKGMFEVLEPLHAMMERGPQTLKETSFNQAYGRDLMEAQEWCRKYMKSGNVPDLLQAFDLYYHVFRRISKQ
Chain of GSK-3βFRB* (P26883 2-108): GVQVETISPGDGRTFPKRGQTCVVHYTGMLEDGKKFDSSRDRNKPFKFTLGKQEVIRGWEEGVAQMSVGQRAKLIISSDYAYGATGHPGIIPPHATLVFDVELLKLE
T1 sequence (P42345 2025-2114 K2095P/T2098L/W2101F): as the sequence (P42345 2025-2114 K2095P/T2098L/W2101F) above
T1 sequence (P26883 2-108): as the sequence (P26883 2-108) above

C20-(R or S)-methallylrapamycin [C20-MaRap]
Lim3 phenotype of caudal hindbrain (FRB*Pax6 [1]; 48 hours from e9.5 to e11.5): could be rescued
hypoglossal nerve, whole mount neurofilament staining (FRB*Pax6 [1]; 48 hours from e9.5 to e11.5): fasciculated hypoglossal nerve erupts
expression of FRB*Pax6 protein in the spinal cord (FRB*Pax6 [1]; Pax6FRB*/FRB* embryos, data not shown): rescued
En1 expressing cells in the V1 domain of spinal cord (FRB*Pax6 [1]; e8.5 embryos cultured 48 hours, 2 μM): rescued the development of En1 expressing cells
cells expressing Lim3 in spinal cord (FRB*Pax6 [1]; e9.5 to e11.5, 2 μM): expansion of cells expressing Lim3
effect on wild-type embryos (FRB*Pax6 [1]; embryo cultures): no obvious effect
FRB*Pax6 protein level (FRB*Pax6 [2]; Pax6FRB*/FRB* cortical neural cultures, increasing quantities, 36 hours): dose-dependent increase in FRB*Pax6 protein
effect on wild-type Pax6 expression (FRB*Pax6 [2]; cortical neural cultures): no effect
kinetics of FRB*Pax6 turnover (FRB*Pax6 [2]; data not shown): markedly slowed
GSK-3βFRB* levels (GSK-3βFRB*; GSK-3βFRB*/FRB* MEFs, 36 hour treatment, 100 nM): restored GSK-3βFRB* levels
effect on wild-type GSK-3β, β-catenin, or HSP-90 expression (GSK-3βFRB*; MEFs): neither drug had an effect
stabilization in fibroblasts lacking detectable FKBP12 expression (GSK-3βFRB*; doubly homozygous GSK-3βFRB* and FKBP12IM, 100 nM 36 hours): complete loss of C20-MaRap-induced stabilization
time of half maximal stabilization (GSK-3βFRB*; heterozygous MEFs, 100 nM): 8 to 12 h
time to complete stabilization (GSK-3βFRB*; heterozygous MEFs, 100 nM): approximately 24 hours

Source: patent publication US20050214738A1, “Conditional allele system” (priority 2003, published 2005)
